Data as given in the NIST ThermoML archive (doi:10.1021/je8007759).

Assay: xn = mol fraction of the nth substance listed

CC1CCC(=O)O1 (stereo not given) [γ-valerolactone] + O=C=O
mass density [kg/m3], Fluid (supercritical or subcritical phases), Pycnometric method
Settings	322.9 K	327.9 K
9870 kPa, x1 = 0.01	521	–
9890 kPa, x1 = 0.01	526	–
9920 kPa, x1 = 0.01	529	–
9940 kPa, x1 = 0.01	532	–
9960 kPa, x1 = 0.01	535	–
9980 kPa, x1 = 0.01	539	–
10000 kPa, x1 = 0.01	540	–
10020 kPa, x1 = 0.01	542	–
10050 kPa, x1 = 0.01	547	–
10080 kPa, x1 = 0.01	550	–
10100 kPa, x1 = 0.01	554	–
10110 kPa, x1 = 0.01	556	–
10140 kPa, x1 = 0.01	559	–
10170 kPa, x1 = 0.01	563	–
10200 kPa, x1 = 0.01	566	–
10230 kPa, x1 = 0.01	576	–
10230 kPa, x1 = 0.025	673	–
10240 kPa, x1 = 0.025	675	–
10260 kPa, x1 = 0.01	574	–
10270 kPa, x1 = 0.025	679	–
10290 kPa, x1 = 0.01	578	–
10310 kPa, x1 = 0.025	683	–
10330 kPa, x1 = 0.01	582	–
10370 kPa, x1 = 0.01	586	–
10370 kPa, x1 = 0.025	687	–
10380 kPa, x1 = 0.15	939	–
10400 kPa, x1 = 0.01	590	–
10430 kPa, x1 = 0.01	594	–
10440 kPa, x1 = 0.025	692	–
10470 kPa, x1 = 0.01	598	–
10470 kPa, x1 = 0.025	696	–
10510 kPa, x1 = 0.05	766	–
10520 kPa, x1 = 0.01	602	–
10540 kPa, x1 = 0.025	701	–
10550 kPa, x1 = 0.05	769	–
10570 kPa, x1 = 0.01	606	497
10600 kPa, x1 = 0.01	–	500
10600 kPa, x1 = 0.05	771	–
10610 kPa, x1 = 0.025	705	–
10620 kPa, x1 = 0.01	610	–
10630 kPa, x1 = 0.01	–	502
10630 kPa, x1 = 0.1	881	–
10660 kPa, x1 = 0.01	–	505
10670 kPa, x1 = 0.025	710	–
10680 kPa, x1 = 0.01	615	–
10690 kPa, x1 = 0.01	–	509
10700 kPa, x1 = 0.1	882	–
10720 kPa, x1 = 0.01	619	511
10720 kPa, x1 = 0.05	776	–
10740 kPa, x1 = 0.01	–	514
10750 kPa, x1 = 0.025	714	–
10770 kPa, x1 = 0.01	–	517
10770 kPa, x1 = 0.1	884	–
10780 kPa, x1 = 0.01	624	–
10820 kPa, x1 = 0.01	–	522
10820 kPa, x1 = 0.025	718	–
10840 kPa, x1 = 0.01	629	–
10840 kPa, x1 = 0.1	885	–
10860 kPa, x1 = 0.05	781	–
10880 kPa, x1 = 0.01	–	529
10880 kPa, x1 = 0.15	943	–
10900 kPa, x1 = 0.01	633	–
10910 kPa, x1 = 0.025	723	–
10930 kPa, x1 = 0.01	–	535
10980 kPa, x1 = 0.01	638	–
11000 kPa, x1 = 0.1	888	–
11010 kPa, x1 = 0.01	–	542
11010 kPa, x1 = 0.05	787	–
11020 kPa, x1 = 0.025	727	–
11040 kPa, x1 = 0.01	641	–
11080 kPa, x1 = 0.01	–	549
11090 kPa, x1 = 0.025	732	–
11130 kPa, x1 = 0.01	–	554
11160 kPa, x1 = 0.01	650	–
11180 kPa, x1 = 0.05	792	–
11190 kPa, x1 = 0.01	–	559
11190 kPa, x1 = 0.025	737	–
11200 kPa, x1 = 0.15	945	–
11230 kPa, x1 = 0.1	892	–
11280 kPa, x1 = 0.01	–	567
11290 kPa, x1 = 0.01	657	–
11300 kPa, x1 = 0.025	–	661
11310 kPa, x1 = 0.025	742	–
11360 kPa, x1 = 0.025	–	665
11380 kPa, x1 = 0.05	797	–
11420 kPa, x1 = 0.01	–	578
11420 kPa, x1 = 0.025	–	669
11450 kPa, x1 = 0.025	747	–
11480 kPa, x1 = 0.025	–	673
11510 kPa, x1 = 0.01	667	586
11520 kPa, x1 = 0.025	–	677
11540 kPa, x1 = 0.025	751	–
11540 kPa, x1 = 0.1	897	–
11580 kPa, x1 = 0.05	803	–
11590 kPa, x1 = 0.025	–	682
11600 kPa, x1 = 0.15	–	928
11630 kPa, x1 = 0.01	–	594
11660 kPa, x1 = 0.025	–	686
11700 kPa, x1 = 0.025	757	–
11720 kPa, x1 = 0.05	–	759
11730 kPa, x1 = 0.025	–	690
11740 kPa, x1 = 0.1	–	864
11760 kPa, x1 = 0.15	950	–
11770 kPa, x1 = 0.1	–	865
11790 kPa, x1 = 0.01	–	606
11800 kPa, x1 = 0.01	681	–
11800 kPa, x1 = 0.025	–	694
11800 kPa, x1 = 0.05	808	–
11820 kPa, x1 = 0.025	763	–
11840 kPa, x1 = 0.05	–	763
11880 kPa, x1 = 0.1	–	867
11890 kPa, x1 = 0.025	–	698
11920 kPa, x1 = 0.01	–	615
11920 kPa, x1 = 0.15	–	931
11970 kPa, x1 = 0.025	768	–
11970 kPa, x1 = 0.05	–	768
11980 kPa, x1 = 0.01	–	621
11990 kPa, x1 = 0.025	–	703
12010 kPa, x1 = 0.1	903	–
12030 kPa, x1 = 0.01	691	–
12050 kPa, x1 = 0.1	–	871
12070 kPa, x1 = 0.01	–	628
12080 kPa, x1 = 0.05	814	–
12110 kPa, x1 = 0.025	–	709
12130 kPa, x1 = 0.025	773	–
12130 kPa, x1 = 0.05	–	774
12140 kPa, x1 = 0.15	952	–
12250 kPa, x1 = 0.15	–	934
12280 kPa, x1 = 0.025	–	716
12300 kPa, x1 = 0.01	–	639
12310 kPa, x1 = 0.05	–	779
12320 kPa, x1 = 0.05	820	–
12330 kPa, x1 = 0.025	778	–
12520 kPa, x1 = 0.025	784	–
12540 kPa, x1 = 0.1	910	–
12620 kPa, x1 = 0.05	826	–
12660 kPa, x1 = 0.15	956	–
12710 kPa, x1 = 0.025	790	–
12920 kPa, x1 = 0.025	795	–
12960 kPa, x1 = 0.05	832	–
13080 kPa, x1 = 0.1	915	–
13150 kPa, x1 = 0.025	801	–
13170 kPa, x1 = 0.15	959	–
13320 kPa, x1 = 0.05	838	–
13390 kPa, x1 = 0.025	806	–
13570 kPa, x1 = 0.05	843	–
13640 kPa, x1 = 0.025	812	–
13720 kPa, x1 = 0.15	962	–
13790 kPa, x1 = 0.1	923	–
14000 kPa, x1 = 0.05	850	–
14100 kPa, x1 = 0.025	821	–
14230 kPa, x1 = 0.15	965	–
14430 kPa, x1 = 0.05	856	–
14490 kPa, x1 = 0.1	929	–
14840 kPa, x1 = 0.05	862	–
14860 kPa, x1 = 0.15	969	–
14880 kPa, x1 = 0.1	932	–
15440 kPa, x1 = 0.15	972	–
15620 kPa, x1 = 0.05	872	–
15960 kPa, x1 = 0.15	975	–
16660 kPa, x1 = 0.15	979	–
17270 kPa, x1 = 0.15	982	–

mass density [kg/m3], 322.9 K, high pressure variable cell
Settings	x1 = 0.01	x1 = 0.025	x1 = 0.05	x1 = 0.1	x1 = 0.15
Gas	514	672	763	–	–
Liquid	–	–	–	877	936
